{"source": "patent US10780061B2", "about": "“Composition comprising farnesol and use thereof” (Daegu Gyongbuk Institute of Science and Technology, priority 2014, dated 2020)", "key": {"[1]": {"experiment": "LC-MS/MS of farnesol and metabolite FPP in extensor digitorum longus muscle", "assay_type": "in vivo", "conditions": "mouse orally administered with farnesol 5 weeks", "method": "The amount of intracellular farnesol or metabolite thereof is measured in the extensor digitorum longus muscle of a mouse administered with farnesol for 5 weeks.\nSample pretreatment for quantitative analysis of farnesol in the mouse extensor digitorum longus muscle is performed by extraction using saturated KOH/ethanol and fractionation using Tris-HCl buffer and n-hexane: ethanol (Journal of Pharmaceutical and Biomedical Analysis 47(2008) 560-566) and an n-hexane layer is obtained and dried, followed by LC-MS/MS (ACQUITY UPLC System and ACQUITY TQD mass spectrometry, Waters). […] The concentration of farnesol is determined by a ratio of a peak area of farnesol to a peak area of 1-tetradecanol used as an internal standard, they are added to the sample in an equal amount.\nSample pretreatment for quantitative analysis of a farnesol metabolite, farnesylpyrophosphate (FPP) in the mouse extensor digitorum longus muscle is performed by extraction using 2-propanol: 100 mM NH4HCO3, pH 7.8 (1:1 v/v) and protein precipitation using acetonitrile (Anal. Biochem. 383 (2008) 18-24), and a supernatant is obtained and dried, followed by LC-MS/MS (ACQUITY UPLC System and ACQUITY TQD mass spectrometry, Waters). […] The concentration of FPP is determined by a peak area."}, "[2]": {"system": "injured tibialis anterior muscles", "experiment": "Histological staining of cardiotoxin-injured tibialis anterior muscles of old animals", "assay_type": "in vivo, mouse", "conditions": "25-month-old mice, farnesol diet 2 weeks, 4 days after CTX injury", "method": "25-month-old mice are fed with a control diet or a farnesol-containing diet for 2 weeks, and then 2 ul of 10 uM cardiotoxin (CTX) per body weight (g) is directly injected into the muscle to induce muscle injury. After 4 days, muscles are frozen and sectioned, followed by histological staining.\nHematoxylin and eosin (H&E) staining and sirus red staining are used in histological staining. Because muscle fibrosis […] and muscle regeneration is active at 4 days after muscle injury, effect of farnesol administration may be determined by histological staining. H&E staining is performed to examine structural recovery of injury, and sirus red staining is performed to examine the presence of fibrosis. […] That is, the control old animal has more thicker fibrosis regions located between the fibers than the experimental old animal treated with farnesol."}, "[3]": {"system": "C2C12 myoblasts introduced with FLAG-PARIS WT or C631S", "experiment": "Differentiation of PARIS WT or PARIS C631S gene-introduced C2C12 myoblasts (Mhc immunostaining)", "assay_type": "cell-based", "conditions": "C2C12, 0.1 M farnesol, 24 hours", "method": "Additionally, it is examined whether the presence of farnesol affects farnesylation of PARIS protein in skeletal muscles. To this end, the FLAG-PARIS wild-type (WT) gene or the FLAG-PARIS C631S mutant (hereinafter, referred to as MT) gene is overexpressed in C2C12 myoblasts, and then farnesol is treated thereto, followed by measurement of differentiation. The muscles of mice are introduced with AAV-GFP, AAV-PARIS WT or AAV-PARIS C631S viral vector, and mice are bred by feeding with farnesol, followed by measurement of mitochondrial enzyme activity.\nIn FIG. 5D, C2C12 myoblasts are introduced with FLAG-PARIS wild-type (WT) gene or FLAG-PARIS C631S mutant (hereinafter, referred to as “MT”) gene, and cultured in the presence of […] farnesol in DMEM containing 10% FBS for 24 hours, followed by measurement of muscle differentiation and mitochondrial enzyme activity. Muscle differentiation is examined by immunostaining using a muscle differentiation marker, Mhc. […] The percentage of Mhc-negative nuclei indicates the cells showing no formation of red-colored myotube among the nucleus-stained myoblasts of A."}, "SDH enzyme activity": {"system": "SDH enzyme activity", "experiment": "SDH staining of hind limb muscles, high fat diet model", "assay_type": "in vivo, mouse", "conditions": "high fat diet with 0.5% compound, 3 months", "description": "(§1) To prepare the PGC-1α-inhibited model, 3-month-old mouse (female, body weight of 20 g) is fed with high fat diet, in which fat is increased to 60%, compared to a negative control group, for 5 days (short-term effect) or 3 months (long-term effect). The negative control group is fed with a general diet. Farnesol is mixed in the high fat diet at a content of 0.5% (weight of farnesol/weight of diet). A positive control group is fed with high fat diet containing a type II diabetes drug, metformin at a content of 0.5% (weight of metformin/weight of diet). Mice are fed with the general diet, the high fat diet, and the high fat diet containing farnesol or metformin for 3 months, and then hind limbs are removed to analyze muscle differentiation and mitochondrial enzyme activity."}, "PARIS, PGC-1α": {"system": "PARIS, PGC-1α", "experiment": "Western blotting of hind limb muscles, high fat diet for 3 months", "assay_type": "in vivo, mouse", "conditions": "high fat diet with 0.5% compound", "description": "as §1"}}, "data": [{"smiles": "CC(C)=CCC/C(C)=C/CC/C(C)=C/CO", "note": "[farnesol, (2E,6E)-3,7,11-trimethyldodeca-2,6,10-trien-1-ol]", "values": [{"measurement": "amount of farnesol in EDL muscle relative to control", "setting": "[1]", "value": "≥ 1.3", "unit": "times"}, {"measurement": "percentage of blue and red stained muscle fibers (sirus red staining)", "setting": "[2]", "value": "remarkably reduced"}, {"measurement": "regenerative region and fibrotic area", "setting": "[2]", "value": "a widespread regenerative region and a narrow fibrotic area"}, {"measurement": "size of muscle fibers stained red (H&E staining)", "setting": "[2]", "value": "increased"}, {"measurement": "percentage of Mhc-negative nuclei, FLAG-PARIS C631S", "setting": "[3]", "value": "does not significantly decrease"}, {"measurement": "percentage of Mhc-negative nuclei, FLAG-PARIS WT", "setting": "[3]", "value": "significantly decreases"}, {"measurement": "percentage of muscle fibers showing increased SDH enzyme activity", "setting": "SDH enzyme activity", "value": "increased"}, {"measurement": "decreased PGC-1α expression by high fat diet", "setting": "PARIS, PGC-1α", "value": "inhibited"}, {"measurement": "increased PARIS level by high fat diet", "setting": "PARIS, PGC-1α", "value": "inhibited"}]}]}
